Experimental data reported in patent US12234248B2, “Co-crystal compounds comprising lithium ions and isonicotinamide” (UNIVERSITY OF LIMERICK, priority 2017, dated 2025).
Values joined by “and” are separate entries in the source; they are usually repeats but may differ in a detail not shown here. Equal values may be shown once.

Key:
[1] = Bioavailability in vivo in rats: lithium in plasma and brain by ICP-OES after oral administration; settings: for BRAIN CONC., Time(h) 2.00 / PLASMA CONC, Time(h) 2.00: 2 h; for BRAIN CONC., Time(h) 2.00 / BRAIN CONC., Time(h) 24.00 / BRAIN CONC., Time(h) 48.00 / BRAIN CONC., Time(h) 72.00: lithium in brain; for BRAIN CONC., Time(h) 2.00 / PLASMA CONC, Time(h) 2.00 / BRAIN CONC., Time(h) 24.00 / PLASMA CONC, Time(h) 24.00 / BRAIN CONC., Time(h) 48.00 / PLASMA CONC, Time(h) 48.00 / BRAIN CONC., Time(h) 72.00 / PLASMA CONC, Time(h) 72.00: individual rats (three per time); for PLASMA CONC, Time(h) 2.00 / PLASMA CONC, Time(h) 24.00 / PLASMA CONC, Time(h) 48.00 / PLASMA CONC, Time(h) 72.00: lithium in plasma; for BRAIN CONC., Time(h) 24.00 / PLASMA CONC, Time(h) 24.00: 24 h; for BRAIN CONC., Time(h) 48.00 / PLASMA CONC, Time(h) 48.00: 48 h; for BRAIN CONC., Time(h) 72.00 / PLASMA CONC, Time(h) 72.00: 72 h
Protocol: Male Sprague-Dawley rats, weighing 240-290 g, were treated through gastric intubation with formulations of lithium and compared with lithium carbonate as a reference. For each formulation a group of 12 rats was treated. 4 mEq/kg of lithium were orally administered, after suspension in 2 mL of corn seeds oil (“Olio Cuore”).
Four intervals' post-administration time (2, 24, 48 and 72 hours) were considered and three rats for each of them, employing the protocol used by Zaworotko and coworkers (Smith et al., Mol. Pharmaceutics 2013, 10, 4728-4738). At each time interval blood samples were collected through intra-cardiac […], these were treated with 50 μL of sodium heparin and centrifuged for 10 min at 1600 rpm. Plasma samples of approximately […] each were thus obtained. The brain was explanted in toto with perfusion with phosphate buffered saline (PBS) in order to preserve it in a viable state. The plasma and brain samples were immediately frozen at a temperature of −80° C., after measuring the weight of the brains.
In order to determine the concentration of the lithium by means of the ICP-OES (Inductively Coupled Plasma Optical Emission Spectometry) analysis, plasma and brain samples were purified and mineralized, respectively to obtain solutions suitable for analysis.
A 0.5 mL aliquot was taken from each sample, to which were added equal amounts of MilliQ water and concentrated nitric acid, in order to bring the lithium ion in solution in the form of LiNO3 and to obtain the precipitation of the proteins. At this point, each sample was sonicated for 10 min in an ultrasonic bath and diluted to a volume of 5.0 mL.
All samples were subjected to centrifugation for a period of 40 min, at a rotational speed of 6000 rpm, to obtain complete plasma proteins/solution separation. At the end supernatant liquid containing lithium was diluted to a final volume of 15 mL by adding MilliQ water. The obtained solutions were stored at a temperature of 4° C. until analysis.
The purpose of this phase was to obtain liquid samples, suitable to ICP-OES analysis, containing lithium in solution, starting from the solid organic tissue of the brain. The mineralization process allows the complete degradation of organic substances until the total transformation into simple inorganic substances.
The first operation performed was that the drying of the fabric, obtained through the use of a digester open PerkinElmer SPB 100-12: each sample of brain has been inserted in special containers Digitube™ 100 mL and maintained at a temperature of 80° C. for 120 min.
The second step involved the mineralization true and proper brain: each sample were added to 10 mL of concentrated nitric acid and 1.0 mL of hydrogen peroxide, then the system was brought to a temperature of 120° C. for 120 min. until the complete mineralization. With this procedure you get the desired biological degradation of organic compounds and the consequent passage of lithium in solution. The solutions thus obtained were collected, brought to a final volume of 20 mL with MilliQ water and preserved at a temperature of 4° C. until time of analysis.
In order to obtain the determination of lithium ion concentrations in the samples previously prepared, optical emission spectrometry inductively coupled plasma ICP-OES was used (PerkinElmer Optima 8000 spectrometer).
The analysis was conducted at the fixed wavelength of lithium (λ=670.784 nm) and the intensity of the radiation emitted by each sample was measured and compared standard solutions.
Plasma and brain concentration data were processed using a non-compartmental approach using WinNonlin® software (Pharsight Corporation, USA) and Microsoft Excel XP (Microsoft Corporation, […]).

[2] = Stability of crystalline material under warm humid conditions (40° C., 75% relative humidity), PXRD before and after; type: physicochemical; settings: stored at 40° C., 75% relative humidity; stable = retained crystal form for at least two weeks by PXRD
Protocol: The stability of these compounds under warm humid conditions was assessed as follows:
The crystalline material was stored at 40° C. in an atmosphere of 75% relative humidity.
Compounds were classed as stable if they retained their crystal form for at least two weeks as verified by examination of PXRD patterns collected before and after exposure to humidity.
It can be seen that the pattern obtained after 2 months at 75% relative humidity and 40° C. (upper trace) in this case is different.

[3] = rat brain, 4 mEq/kg lithium oral, non-compartmental
[4] = rat brain, 4 mEq/kg lithium oral, terminal phase
[5] = rat brain, 4 mEq/kg lithium oral, time 0 to last quantifiable point
[6] = rat brain, relative to lithium carbonate
[7] = rat plasma, 4 mEq/kg lithium oral, non-compartmental
[8] = rat plasma, 4 mEq/kg lithium oral, terminal phase
[9] = rat plasma, relative to lithium carbonate

Compound | Cmax (brain) [1, 3] [µg/g] | Tmax (brain) [1, 3] [h] | t½_Lambda_z (brain) [1, 4] [h] | AUClast (brain) [1, 5] [mg·h/g] | Relative Brain BA (UL crystal forms, oral vs Li2CO3, oral) [1, 6] [%] | Cmax (plasma) [1, 7] [ng/mL] | Tmax (plasma) [1, 7] [h] | t½_Lambda_z (plasma) [1, 8] [h] | Relative Plasma BA (UL crystal forms, oral vs Li2CO3 oral) [1, 9] [%] | BRAIN CONC., Time(h) 2.00 ([1]; rat, 4 mEq/kg lithium oral) | PLASMA CONC, Time(h) 2.00 ([1]; rat, 4 mEq/kg lithium oral) | BRAIN CONC., Time(h) 24.00 ([1]; rat, 4 mEq/kg lithium oral) | PLASMA CONC, Time(h) 24.00 ([1]; rat, 4 mEq/kg lithium oral) | BRAIN CONC., Time(h) 48.00 ([1]; rat, 4 mEq/kg lithium oral) | PLASMA CONC, Time(h) 48.00 ([1]; rat, 4 mEq/kg lithium oral) | BRAIN CONC., Time(h) 72.00 ([1]; rat, 4 mEq/kg lithium oral) | PLASMA CONC, Time(h) 72.00 ([1]; rat, 4 mEq/kg lithium oral) | Stable? [2] | also measured
COc1cccc(C(=O)[O-])c1.O=C(O)[C@@H]1CCCN1.[Li+] [Compound 6, [Li(3-methoxybenzoate)(L-proline)]n] | 4.3733 | 24 | 15.3888 | 172.7467 | 74.33 | 6383.3 | 24 | 10.4363 | 74.07 | 0.64 µg/g and 0.44 µg/g and 0.73 µg/g | 3030 ng/mL and 1430 ng/mL and 3380 ng/mL | 4.54 µg/g and 4.21 µg/g and 4.37 µg/g | 5950 ng/mL and 4760 ng/mL and 8440 ng/mL | 2.84 µg/g and 2.06 µg/g and 2.46 µg/g | 670 ng/mL and 740 ng/mL and 870 ng/mL | 0.59 µg/g and 0.49 µg/g and 0.43 µg/g | 230 ng/mL and 310 ng/mL and 250 ng/mL | Yes | 
NC(=O)c1ccncc1.NC(=O)c1ccncc1.O=C([O-])/C=C/C(=O)[O-].[Li+].[Li+] [Compound 2, [Li2(fumarate)(isonicotinamide)2]n] |  |  |  |  |  |  |  |  |  |  |  |  |  |  |  |  |  | Yes | AUC (Cerebral)/AUC (Plasma) ([1]; rat, in vivo): 1.208; AUC(0-t) ([1]; rat, in vivo, po): 147 µg·h/mL; AUClast (brain) ([1]; rat, in vivo, po): 0.177 mg·h/g; Cmax (brain) ([1]; rat, in vivo, po): 4.0200 µg/g; Cmax (plasma) ([1]; rat, in vivo, po): 3976.7 ng/mL; Relative Brain BA (UL crystal forms, oral vs Li2CO3, oral) ([1]; rat, in vivo, po): 76.37%; Relative Plasma BA (UL crystal forms, oral vs Li2CO3 oral) ([1]; rat, in vivo, po): 54.52%; Tmax (brain) ([1]; rat, in vivo, po): 24 h; Tmax (plasma) ([1]; rat, in vivo, po): 24 h; t½_Lambda_z (brain) ([1]; rat, in vivo, po): 16.7775 h; t½_Lambda_z (plasma) ([1]; rat, in vivo, po): 14.0638 h
COc1ccc(C(=O)[O-])cc1.O=C(O)[C@@H]1CCCN1.[Li+] [Compound 5, [Li(4-methoxybenzoate)(L-proline)]n] | 4.9833 | 48 | 13.4751 | 229.3867 | 98.70 | 6080 | 24 | 16.5057 | 90.41 | 0.23 µg/g and 0.48 µg/g and 0.46 µg/g | 2820 ng/mL and 4020 ng/mL and 2650 ng/mL | 4.44 µg/g and 4.46 µg/g and 2.54 µg/g | 7150 ng/mL and 6800 ng/mL and 4290 ng/mL | 4.42 µg/g and 4.76 µg/g and 5.77 µg/g | 1450 ng/mL and 1910 ng/mL and 3650 ng/mL | 1.08 µg/g and 0.43 µg/g and 2.84 µg/g | 630 ng/mL and 480 ng/mL and 1320 ng/mL | Yes | concentration of lithium in the brain compared with lithium carbonate ([1]; rat brain, after 48 hours, FIG. 12): higher
